# Assay results published in patent US8735151B2, “Spontaneously contracting fish cell aggregates, use thereof and method for the production thereof” (Fraunhofer-Gesellschaft zur Foerderung der Angewandten …, priority 2009, dated 2014).
# What was measured:
# [1] = system: spontaneously contracting cell aggregates (certain channels in the heart: potassium and calcium channels); experiment: Drug tests on the cell aggregates (electrophysiology, intracellular derivation with a sharp electrode); format: cell-based, Rainbow trouts (Oncorhynchus mykiss, Walbaum); conditions: for reaction of the aggregates on drugs which influence certain channels in the heart: FIG. 10; for recovery of the aggregates after the drug testing: medium change
# Protocol: FIG. 10 Effect of cardiac drugs on the cell aggregates; A: isoproterenol (calcium channel agonist); B: rilmakalim ([…])
# The electrophysiology is important for the use of the cell aggregates as a test system in pharmacology. Measurement of the electric activity was performed by means of extracellular measurement via MEA (multi-electrode array) and intracellular measurement via a sharp electrode.
# The properties of action potentials and the examination on certain channels (potassium and calcium channels) were carried out with a sharp electrode.
# The reaction of the aggregates on drugs which influence certain channels in the heart is of importance for the functionality as a test model. […] Examinations were carried out with isoproterenol (calcium channel agonist) (FIG. 10A) and rilmakalim ([…]).
# [2] = system: spontaneously contracting cell aggregate; experiment: Reaction of cell aggregates on the addition of potassium (light microscope, video recordings); format: cell-based, Rainbow trouts (Oncorhynchus mykiss, Walbaum)
# Protocol: The reaction of a cell aggregate which had already contracted for 16 days in culture on potassium could be tested in another experiment. It was shown under a light microscope (Axiovert 40C; Zeiss, Germany) with video recordings that the beating frequency of this aggregate increased from 66 beats per minute to 72 beats per minute over a period of 10 minutes. After these 10 minutes, a 1.75 mM potassium chloride solution was added. […] After removing the medium containing the 1.75 mM KCl solution and replacing it with fresh DMEM/20% FBS, the cell aggregate began to beat again after 2 minutes. However, the beating frequency was at first only 16 beats per minute which recovered to the original frequency within the next three days.
compound,measurement,setting,value
CC(C)NCC(O)c1ccc(O)c(O)c1 (centres unmarked) [isoproterenol],reaction of the aggregates on drugs which influence certain channels in the heart,[1],in the same manner as the human heart
same,recovery of the aggregates after the drug testing,[1],recover after the drug testing by means of a medium change
[Cl-].[K+] [potassium chloride],contraction speed of the aggregate after adding the KCl solution,"[2]; 1.75 mM potassium chloride solution, aggregate 16 days contracting in culture, for 6 seconds after addition, baseline 66-72 beats per minute",triple the speed as before
same,time after addition until contraction stopped,"[2]; 1.75 mM potassium chloride solution, no more contractions observed",10 s
same,beating frequency at first after medium replacement,"[2]; after removal of 1.75 mM KCl, recovered to the original frequency within the next three days",16 beats per minute
same,time until the cell aggregate began to beat again after replacing medium,[2]; after removing medium containing 1.75 mM KCl and replacing with fresh DMEM/20% FBS,2 min
CC1(C)Oc2ccc(S(=O)(=O)c3ccccc3)cc2[C@@H](N2CCCC2=O)[C@@H]1O [rilmakalim],reaction of the aggregates on drugs which influence certain channels in the heart,[1],in the same manner as the human heart
same,recovery of the aggregates after the drug testing,[1],recover after the drug testing by means of a medium change
